Consider 12 molecules from ChEMBL document CHEMBL1133362, “Discovery and evaluation of potent, cysteine-based alpha4beta1 integrin antagonists” (Bioorg Med Chem Lett, 2000).

Usually IC50 stands for the concentration needed to halve the response being measured. Low values mean inhibition by little substance, high ones a need for much substance.

This test concerns the target Integrin alpha-4/beta-1 (Homo sapiens, UniProt P05556+P13612). The test is described as follows: Inhibition of VCAM (vascular cell adhesion molecule) adhesion to alpha4-beta1 integrin of leukocyte cells. Format: functional, cell-based.

Structures are written as SMILES.

Chain of Integrin alpha-4/beta-1 (P05556 whole entry): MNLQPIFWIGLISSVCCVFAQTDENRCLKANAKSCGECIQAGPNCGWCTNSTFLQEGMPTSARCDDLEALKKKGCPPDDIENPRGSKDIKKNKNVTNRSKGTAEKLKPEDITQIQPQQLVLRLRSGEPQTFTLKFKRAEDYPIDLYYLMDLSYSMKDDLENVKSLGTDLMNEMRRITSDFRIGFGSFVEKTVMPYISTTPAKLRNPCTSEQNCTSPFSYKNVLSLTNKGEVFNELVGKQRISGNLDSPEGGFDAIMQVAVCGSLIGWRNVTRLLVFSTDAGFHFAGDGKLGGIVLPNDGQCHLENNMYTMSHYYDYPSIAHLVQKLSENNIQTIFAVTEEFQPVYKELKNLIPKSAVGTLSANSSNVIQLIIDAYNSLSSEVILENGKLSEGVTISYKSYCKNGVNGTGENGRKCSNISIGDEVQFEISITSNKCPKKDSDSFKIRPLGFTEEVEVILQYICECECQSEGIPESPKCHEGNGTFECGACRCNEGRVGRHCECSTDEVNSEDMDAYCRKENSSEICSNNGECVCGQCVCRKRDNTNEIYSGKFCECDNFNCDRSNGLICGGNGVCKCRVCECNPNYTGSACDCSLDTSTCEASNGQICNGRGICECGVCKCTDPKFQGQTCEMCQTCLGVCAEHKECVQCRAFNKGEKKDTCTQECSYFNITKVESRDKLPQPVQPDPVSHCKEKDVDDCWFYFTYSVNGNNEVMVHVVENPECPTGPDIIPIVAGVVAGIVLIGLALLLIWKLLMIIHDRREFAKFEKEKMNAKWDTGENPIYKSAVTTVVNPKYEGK
Chain of Integrin alpha-4/beta-1 (P13612 whole entry): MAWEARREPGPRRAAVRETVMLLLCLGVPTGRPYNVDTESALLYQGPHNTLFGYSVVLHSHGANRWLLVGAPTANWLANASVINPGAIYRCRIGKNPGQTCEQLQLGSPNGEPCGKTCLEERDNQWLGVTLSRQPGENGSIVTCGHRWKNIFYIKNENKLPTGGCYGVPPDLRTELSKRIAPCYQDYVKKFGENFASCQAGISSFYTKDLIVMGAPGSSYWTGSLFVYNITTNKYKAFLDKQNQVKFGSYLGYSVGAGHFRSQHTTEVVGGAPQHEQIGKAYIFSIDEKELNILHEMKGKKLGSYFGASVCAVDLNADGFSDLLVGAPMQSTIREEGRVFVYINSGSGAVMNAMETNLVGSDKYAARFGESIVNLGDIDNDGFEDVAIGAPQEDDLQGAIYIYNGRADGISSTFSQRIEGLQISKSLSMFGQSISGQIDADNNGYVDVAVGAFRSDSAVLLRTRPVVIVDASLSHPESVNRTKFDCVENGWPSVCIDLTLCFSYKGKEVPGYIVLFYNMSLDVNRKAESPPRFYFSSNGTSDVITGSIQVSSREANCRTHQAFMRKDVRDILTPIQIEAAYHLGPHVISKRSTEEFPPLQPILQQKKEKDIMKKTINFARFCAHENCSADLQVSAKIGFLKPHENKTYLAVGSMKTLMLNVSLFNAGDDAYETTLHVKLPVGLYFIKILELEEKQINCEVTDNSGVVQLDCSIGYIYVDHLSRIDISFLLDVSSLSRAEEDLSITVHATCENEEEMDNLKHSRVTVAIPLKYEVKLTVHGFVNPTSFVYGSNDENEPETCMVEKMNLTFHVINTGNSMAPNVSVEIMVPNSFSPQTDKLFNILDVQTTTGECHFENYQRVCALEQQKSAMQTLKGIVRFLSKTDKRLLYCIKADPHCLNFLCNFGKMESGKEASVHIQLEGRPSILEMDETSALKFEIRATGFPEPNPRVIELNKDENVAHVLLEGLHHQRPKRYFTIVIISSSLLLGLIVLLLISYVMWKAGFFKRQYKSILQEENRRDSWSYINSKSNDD

As to `O=C(O)[C@H](CSSCCNC(=O)C12CC3CC(CC(C3)C1)C2)NC(=O)C12CC3CC(CC(C3)C1)C2`, 4100 nM corresponded to half-maximal inhibition (IC50). That is a single-digit micromolar value.

With `O=C(O)C[C@H]1CN2CCCC[C@H]2C(=O)N[C@H](C(=O)O)CSSC[C@H](NC(=O)C23CC4CC(CC(C4)C2)C3)C(=O)N1`, it took 12 nM to reach half-maximal inhibition (IC50).

For the molecule `O=C(O)C[C@H]1CN2CSC[C@H]2C(=O)N[C@H](C(=O)O)CSSC[C@H](NC(=O)C23CC4CC(CC(C4)C2)C3)C(=O)N1`, the IC50 is 47 nM. Against the preceding molecule, the IC50 is about 3.9-fold higher.

The molecule `CC(=O)N1CSC[C@H]1C(=O)N[C@@H](CSSCCNC(=O)C12CC3CC(CC(C3)C1)C2)C(=O)O` came in with an IC50 of 280 nM. This IC50 lies about 6-fold higher than the previous one.

For the molecule `O=C(O)[C@H](CSSC[C@H](NC(=O)C12CC3CC(CC(C3)C1)C2)C(=O)O)NC(=O)C12CC3CC(CC(C3)C1)C2`, half-maximal inhibition (IC50) required 7300 nM.

`COC(=O)[C@H](CSSC[C@H](NC(=O)C12CC3CC(CC(C3)C1)C2)C(=O)O)NC(=O)C12CC3CC(CC(C3)C1)C2` registered an IC50 of 5100 nM. The IC50 values of the last two molecules are within 1.5-fold of each other.

For `COC(=O)[C@H](CSSC[C@H](NC(=O)[C@@H]1CCCN1C(C)=O)C(=O)O)NC(=O)C12CC3CC(CC(C3)C1)C2`, the 50% inhibitory concentration (IC50) turned out to be 25200 nM. This IC50 lies about 4.9-fold higher than the previous one.

The molecule `O=C(O)C[C@H]1CN2CCC[C@H]2C(=O)N[C@H](C(=O)O)CSSC[C@H](NC(=O)C23CC4CC(CC(C4)C2)C3)C(=O)N1` returned an IC50 of 170 nM.

For the molecule `CC(=O)N1CCC[C@H]1C(=O)N[C@@H](CSSCCNC(=O)C12CC3CC(CC(C3)C1)C2)C(=O)O`, the IC50 is 2340 nM.

`CC(=O)N1CCCC[C@H]1C(=O)N[C@@H](CSSCCNC(=O)C12CC3CC(CC(C3)C1)C2)C(=O)O` displayed an IC50 of 425 nM.

Regarding `C[C@H]1CN2CCC[C@H]2C(=O)N[C@H](C(=O)O)CSSC[C@H](NC(=O)C23CC4CC(CC(C4)C2)C3)C(=O)N1`, the half-inhibitory concentration (IC50) amounted to 330 nM.

The molecule `COC(=O)[C@H](CSSC[C@H](NC(=O)C12CC3CC(CC(C3)C1)C2)C(=O)OC)NC(=O)C12CC3CC(CC(C3)C1)C2` showed an IC50 of over 800000 nM.
